According to patent US20240239790A1, “7-Morpholino-1,6-Naphthyridin-5-yl Derivatives and Pharmaceutical Compositions Thereof Useful as DNA-PK Inhibitor” (adMare Therapeutics Society, priority 2021, published 2024):
Like-named read-outs stand apart in the source and are kept apart here.

How the values were obtained:
[1] = target: T1, DNA-PK (Homo sapiens, UniProt P78527); test: DNA-PK Assay for Biochemical Enzymatic Inhibition (ADP Glo Kinase assay); conditions: DNA-PK enzyme, Table 1
T1 construct: purchased Invitrogen PR9107A
Procedure: A biochemical assay was performed to identify IC50 values against DNA-PK activity in a two-step reaction with a kinase reaction followed by ADP Glo™ Kinase assay Kit (Promega V9102).
Three-fold serial dilutions of compounds in DMSO were prepared in kinase assay buffer (50 mM HEPES pH 7.5, 20 mM MgCl2, 100 mM KCl, 50 μM DTT, 10 μg/ml calf thymus DNA, 0.01% Tween 20). Kinase assay buffer was used to prepare compound treatments to 0.02% DMSO (dimethyl sulphoxide) content. DMSO controls were prepared to produce a maximum and minimum luminescence signal for normalization. Substrate (Anaspec, AS-60210-5) and ATP (Promega V9102) and ATP mix was prepared by dilution in kinase assay buffer for 434.4 μM and 64.4 μM final assay concentrations, respectively. Compounds and control were added to 25 ng DNA-PK enzyme (Invitrogen, PR9107A) diluted in kinase buffer in assay plate (Corning 267459) and incubated for 15 minutes at room temperature prior to addition of substrate and ATP mix.
Throughout the assay, each time a reagent was added to the microplate, it was centrifuged for 1 minute at 1300 rcf. All reagents were added, and incubations carried out at room temperature. The reaction was then incubated for 60 minutes. ADP-ATP standards at 0, 4, 10, 40, 80, and 100% ADP (prepared as specified in the ADP Glo™ Kinase assay kit) were also added to the microplate at a volume equal to the total kinase reaction. The ADP Glo™ Kinase Assay kit was then used to quantify DNA-PK activity: following the 60-minute incubation, a 1:1 volume of ADP Glo reagent was added to all wells, then following a further 45-minute incubation, a 1:1 volume of Kinase Detection Reagent was added to all wells. After this two-step assay, plates were incubated in a Synergy-Neo2 plate reader for 30 minutes with gentle shaking, followed by endpoint luminescent read Luminescence data was normalized by subtracting the background signal and expressing all background-adjusted values as a percentage of the average maximum signal. The data was then expressed as percent inhibition by subtracting from 100% (i.e. maximum luminescent signal will be 0% inhibition) and the resulting data plotted against ten concentration points on a logarithmic scale, using GraphPad Prism. Non-linear regression analysis was performed on each concentration response curve and the log [inhibitor] vs response—variable slope (four parameters) equation was selected to generate IC50 values.

[2] = target: T2, DNA-PK phosphorylation at Serine 2056 (Homo sapiens, UniProt P78527); test: Cellular Assay for Inhibition of DNA-PK Phosphorylation at Serine 2056 in FaDu cells (sandwich ELISA, neocarzinostatin); format: cell-based; conditions: pSer2056 DNA-PK, Table 3
T2 construct: FaDu cells were purchased from ATCC; host or cells: FaDu
Outline: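 FaDu cells pre-treated with compound (0.3% DMSO) for 1 h, then neocarzinostatin 1 μg/mL final added for 2 h to induce DSBs. Protein-normalised lysates read by sandwich ELISA for total and pSer2056 DNA-PK; % inhibition normalised between DMSO and NCS controls, IC50 from variable-slope log(inhibitor) fit.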

[3] = system: pH2AX induction in HCT116 ATM-/- multicellular tumour spheroids; test: Prodrug Radiation Sensitization in Multicellular Tumour Spheroids, inhibition of pH2AX induction following radiation; format: cell-based; conditions: Homo sapiens, HCT-116, 20 Gy
Outline: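 HCT116 and FaDu spheroids (~0.5 mm diameter), ATM-deficient lines included, in MEM/10% FBS/10 mM glucose at 37 °C under 20% vs 5% oxygen with stirring. Prodrugs 10 μM down to 3.5 nM, 20 Gy irradiation. pDNA-PK (ser 2056) or pH2AX (ser 139) scored in formalin-fixed cryosections 1 or 2 h post-radiation.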

[4] = system: FaDu cell line; test: Prodrug Activation in Hypoxic Stirred Tumour Cell Suspensions; conditions: 10 μM, 4 hours
Procedure: Prodrug compounds were assayed to determine their stability and rate of activation in stirred cell suspensions under 0.2 vs 5% oxygen. Compounds were diluted 1:1000 from DMSO stocks to 10 μM final concentration in tumour cell suspensions (1% by cell volume) in MEM media containing 10% FBS, 10 mM glucose & 3.7 g/L sodium bicarbonate. Cell lines assayed included A253, A549, Detroit562, FaDu, HCT116, HEP G2, HT29, SCC25, SCC9, SiHa & TC32. Compounds and cells were then incubated for 4 hours under constant mixing at 37° C. under 5% CO2 and either 0.2 or 5% O2. Following the incubation period cellular activation of the compounds was assayed via MeOH extraction and HPLC quantification.

[5] = 5% O2, inner layers, read-out: Prodrug 5% O2 Inner layers EC50
[6] = 5% O2, outer layers, read-out: Prodrug 5% O2 Outer layers EC50
[7] = 20% O2, outer layers, read-out: Prodrug 20% O2 Outer layers EC50

Row | Structure (SMILES) | IC50 [1] [nM] | IC50 [2] [µM] | Fraction of prodrug converted to active form, Hypoxic 0.2% O2 [4] | Fraction of prodrug converted to active form, Oxic 5% O2 [4] | EC50 [3, 5] [µM] | EC50 [3, 6] [µM] | EC50 [3, 7] [µM]
1 | FC1(F)CN(c2cc3ncccc3c(O[C@H]3CC[C@@H](n4ccnc4)CC3)n2)CC(F)(F)O1 [Compound 13, 4-(5-(((1s,4s)-4-(1H-imidazol-1-yl)cyclohexyl)oxy)-1,6-naphthyridin-7-yl)-2,2,6,6-tetrafluoromorpholine] | 10 to 150 | – | – | – | – | – | –
2 | CN(C)CC(=O)N[C@H]1CC[C@@H](Oc2nc(N3CCOCC3)cc3ncccc23)CC1 [Compound 106, 2-(Dimethylamino)-N-((1s,4s)-4-((7-morpholino-1,6-naphthyridin-5-yl)oxy)cyclohexyl)acetamide] | 10 to 150 | – | – | – | – | – | –
3 | CN(C)C(=N[C@H]1CC[C@@H](Oc2nc(N3CCOCC3)cc3ncccc23)CC1)N(C)C [Compound 129, 1,1,3,3-tetramethyl-2-((1s,4s)-4-((7-morpholino-1,6-naphthyridin-5-yl)oxy)cyclohexyl)guanidine] | 10 to 150 | – | – | – | – | – | –
4 | CC(C)(O)C#Cc1cnc2cc(N3CCOCC3)nc(O[C@H]3CC[C@@H](n4ccnc4)CC3)c2c1 [Compound 159, 4-(5-(((1s,4s)-4-(1H-imidazol-1-yl)cyclohexyl)oxy)-7-morpholino-1,6-naphthyridin-3-yl)-2-methylbut-3-yn-2-ol] | 10 to 150 | – | – | – | – | – | –
5 | CCNC(=O)c1cnc2cc(N3CCOCC3)nc(O[C@H]3CC[C@@H](n4ccnc4)CC3)c2c1 [Compound 168, 5-(((1s,4s)-4-(1H-imidazol-1-yl)cyclohexyl)oxy)-N-ethyl-7-morpholino-1,6-naphthyridine-3-carboxamide] | 10 to 150 | – | – | – | – | – | –
6 | CN(C)C(=O)c1cnc2cc(N3CCOCC3)nc(O[C@H]3CC[C@@H](n4ccnc4)CC3)c2c1 [Compound 170, 5-(((1s,4s)-4-(1H-imidazol-1-yl)cyclohexyl)oxy)-N,N-dimethyl-7-morpholino-1,6-naphthyridine-3-carboxamide] | 10 to 150 | – | – | – | – | – | –

Further lines, with some results ahead:

Row | IC50 [1] [nM] | IC50 [2] [µM] | Fraction of prodrug converted to active form, Hypoxic 0.2% O2 [4] | Fraction of prodrug converted to active form, Oxic 5% O2 [4] | Structure (SMILES) | EC50 [3, 5] [µM] | EC50 [3, 6] [µM] | EC50 [3, 7] [µM]
7 | 10 to 150 | – | – | – | O=C(NC1CCOCC1)[C@H]1CC[C@@H](Oc2nc(N3CCOCC3)cc3ncccc23)CC1 [Compound 154b, (1S,4S)-4-((7-morpholino-1,6-naphthyridin-5-yl)oxy)-N-(tetrahydro-2H-pyran-4-yl)cyclohexane-1-carboxamide] | – | – | –
8 | – | 10 to 30 | B (B is 0.05 to 0.15) | B (B is 0.05 to 0.15) | Cc1cc(C#N)nc(N[C@H]2CC[C@@H](Oc3nc(N4CCOCC4)cc4ncc(OC(C)c5cnc([N+](=O)[O-])n5C)cc34)CC2)n1 (stereo partly shown) [LFA2094, 6-methyl-2-[[4-[[3-[1-(3-methyl-2-nitro-imidazol-4-yl)ethoxy]-7-morpholino-1,6-naphthyridin-5-yl]oxy]cyclohexyl]amino]pyrimidine-4-carbonitrile] | 0.5 to 1 | 1 to 10 | 10 to 100
9 | – | 10 to 30 | C (C is 0.02 to 0.05) | D (D is 0 to 0.02) | Cn1c(COc2cnc3cc(N4CCOCC4)nc(O[C@H]4CC[C@@H](Nc5cncc(C(F)(F)F)n5)CC4)c3c2)cnc1[N+](=O)[O-] [LFA2097, N-[4-[[3-[(3-methyl-2-nitro-imidazol-4-yl)methoxy]-7-morpholino-1,6-naphthyridin-5-yl]oxy]cyclohexyl]-6-(trifluoromethyl)pyrazin-2-amine] | 10 to 100 | 10 to 100 | 10 to 100
10 | – | 0.1 to 1 | B (B is 0.05 to 0.15) | D (D is 0 to 0.02) | Cc1cc(C)nc(N[C@H]2CC[C@@H](Oc3nc(N4CCOCC4)cc4ncc(N(Cc5cnc([N+](=O)[O-])n5C)S(C)(=O)=O)cc34)CC2)n1 [LFA2098, N-[5-[4-[(4,6-dimethylpyrimidin-2-yl)amino]cyclohexoxy]-7-morpholino-1,6-naphthyridin-3-yl]-N-[(3-methyl-2-nitro-imidazol-4-yl)methyl]methanesulfonamide] | 1 to 10 | 1 to 10 | 1 to 10
11 | – | 1 to 10 | B (B is 0.05 to 0.15) | D (D is 0 to 0.02) | CC(c1cnc([N+](=O)[O-])n1C)N(c1cnc2cc(N3CCOCC3)nc(O[C@H]3CC[C@@H](Nc4cncc(C(F)(F)F)n4)CC3)c2c1)S(C)(=O)=O (stereo partly shown) [LFA2099, N-[1-(3-methyl-2-nitro-imidazol-4-yl)ethyl]-N-[7-morpholino-5-[4-[[6-(trifluoromethyl)pyrazin-2-yl]amino]cyclohexoxy]-1,6-naphthyridin-3-yl]methanesulfonamide] | 10 to 100 | 10 to 100 | 10 to 100
12 | – | 10 to 30 | C (C is 0.02 to 0.05) | D (D is 0 to 0.02) | CC(c1cnc([N+](=O)[O-])n1C)N(c1cnc2cc(N3CCOCC3)nc(O[C@H]3CC[C@@H](Nc4nccnc4C#N)CC3)c2c1)S(C)(=O)=O (stereo partly shown) [LFA2100, N-[5-[4-[(3-cyanopyrazin-2-yl)amino]cyclohexoxy]-7-morpholino-1,6-naphthyridin-3-yl]-N-[1-(3-methyl-2-nitro-imidazol-4-yl)ethyl]methanesulfonamide] | 0.01 to 0.5 | 1 to 10 | 10 to 100
13 | – | 10 to 30 | C (C is 0.02 to 0.05) | D (D is 0 to 0.02) | Cn1c(CN(c2cnc3cc(N4CCOCC4)nc(O[C@H]4CC[C@@H](Nc5cncc(C(F)(F)F)n5)CC4)c3c2)S(C)(=O)=O)cnc1[N+](=O)[O-] [LFA2101, N-[(3-methyl-2-nitro-imidazol-4-yl)methyl]-N-[7-morpholino-5-[4-[[6-(trifluoromethyl)pyrazin-2-yl]amino]cyclohexoxy]-1,6-naphthyridin-3-yl]methanesulfonamide] | 10 to 100 | 10 to 100 | 10 to 100
14 | – | 10 to 30 | C (C is 0.02 to 0.05) | D (D is 0 to 0.02) | Cn1c(CN(c2cnc3cc(N4CCOCC4)nc(O[C@H]4CC[C@@H](Nc5nccnc5C#N)CC4)c3c2)S(C)(=O)=O)cnc1[N+](=O)[O-] [LFA2102, N-[5-[4-[(3-cyanopyrazin-2-yl)amino]cyclohexoxy]-7-morpholino-1,6-naphthyridin-3-yl]-N-[(3-methyl-2-nitro-imidazol-4-yl)methyl]methanesulfonamide] | 0.01 to 0.5 | 1 to 10 | 1 to 10
15 | – | 1 to 10 | B (B is 0.05 to 0.15) | D (D is 0 to 0.02) | Cn1c(CN(c2cnc3cc(N4CCOCC4)nc(O[C@H]4CC[C@@H](Nc5cnc(C#N)cn5)CC4)c3c2)S(C)(=O)=O)cnc1[N+](=O)[O-] [LFA2103, N-[5-[4-[(5-cyanopyrazin-2-yl)amino]cyclohexoxy]-7-morpholino-1,6-naphthyridin-3-yl]-N-[(3-methyl-2-nitro-imidazol-4-yl)methyl]methanesulfonamide] | 0.01 to 0.5 | 1 to 10 | 10 to 100
16 | – | 10 to 30 | A (A is 0.15 to 1) | D (D is 0 to 0.02) | Cc1ccc(N[C@H]2CC[C@@H](Oc3nc(N4CCOCC4)cc4ncc(OC(C)c5cnc([N+](=O)[O-])n5C)cc34)CC2)nc1 (stereo partly shown) [LFA2105, 5-methyl-N-[4-[[3-[1-(3-methyl-2-nitro-imidazol-4-yl)ethoxy]-7-morpholino-1,6-naphthyridin-5-yl]oxy]cyclohexyl]pyridin-2-amine] | 1 to 10 | 1 to 10 | 10 to 100
